{
  "source": "patent US20080249028A1",
  "about": "“Thyrotropin-Releasing Hormone Analogs and Method of Use” (Roger Williams Hospital, priority 2005, published 2008)",
  "system": "STZ-induced hyperglycemic rats",
  "assay": "Effect on STZ-induced hyperglycemia in rats (blood glucose level)",
  "format": "in vivo, rat",
  "settings": "Tables 2-3, rats",
  "protocol": "Male Sprague-Dawley rats (S.D. 180 g) were used in the experiments described below. The animals lived in individual metabolism cages with free access to food and water, while food and body weight were monitored daily. Peripheral blood samples (approximately 10 μl) were obtained from the tail vein of the animals. The blood glucose levels were measured by using Accu-Check Blood Glucose Meter (Roche Diagnosetics Corporation, IN). Beta cell function was evaluated once every two days over a 2-week period by an individual unaware of the treatment group. Animals were evaluated separately for blood glucose level, food intake and body weight. The endpoint check was pancreatic insulin content and pancreatic beta cell number.\nStreptozotocin (STZ) was used to chemically induce damage in pancreatic function in order to create a hyperglycemic state in the animals. Eight-week old male Sprague-Dawley rats (200.00 g±10 g) were injected with STZ by intraperitoneal (i.p.) (65 mg/kg body weight (BW)) to create hyperglycemic animals (24 to 48 hours). Blood glucose levels were monitored daily. Onset of hyperglycemia occurred usually about 24 to 48 hours after STZ administration.\n[…] the seventh day or on the third day after STZ administration, which allowed for examination of the TRH/TRH analog treatment and the degree of pancreatic damage in the diabetic animal. Again, food intake, body weight and blood glucose levels of each of the animals were monitored. When hyperglycemia was determined to be reversed by TRH/TRH analog, the animal was sacrificed. Blood samples were collected for insulin assay and the pancreas and muscles were collected for further pathological and physiological tests.\nThe figures shown in the tables are blood glucose levels (mg/dL; i.e., milligrams of glucose per deciliter of blood).",
  "data": [
    {"smiles": "NC(=O)C1CCCN1C(=O)C(Cc1c[nH]cn1)NC(=O)C(N)CCC(=O)O", "note": "(stereo not shown) [GluT, 4-Amino-4-[2-(2-carbamoyl-pyrrolidin-1-yl)-1-(1H-imidazol-4-ylmethyl)-2-oxo-ethylcarbamoyl]-butyric acid]", "values": [
      {"measurement": "blood glucose level", "setting": "STZ + compound 5 µg/kg, Day 1", "value": 94, "unit": "mg/dL"},
      {"measurement": "blood glucose level", "setting": "STZ + compound 5 µg/kg, Day 4", "value": 98, "unit": "mg/dL"},
      {"measurement": "blood glucose level", "setting": "STZ + compound 5 µg/kg, Day 7", "value": 466, "unit": "mg/dL"},
      {"measurement": "blood glucose level", "setting": "STZ + compound 5 µg/kg, Day 11", "value": 457, "unit": "mg/dL"},
      {"measurement": "blood glucose level", "setting": "STZ + compound 5 µg/kg, Day 15", "value": 186, "unit": "mg/dL"},
      {"measurement": "blood glucose level", "setting": "STZ + compound 5 µg/kg, Day 18", "value": 215, "unit": "mg/dL"},
      {"measurement": "blood glucose level", "setting": "STZ + compound 5 µg/kg, Day 21", "value": 213, "unit": "mg/dL"},
      {"measurement": "blood glucose level", "setting": "STZ + compound 5 µg/kg, Day 25", "value": 173, "unit": "mg/dL"},
      {"measurement": "blood glucose level", "setting": "STZ + compound 5 µg/kg, Day 28", "value": 369, "unit": "mg/dL"},
      {"measurement": "blood glucose level", "setting": "STZ + compound 5 µg/kg, Day 32", "value": 342, "unit": "mg/dL"},
      {"measurement": "blood glucose level", "setting": "STZ + compound 5 µg/kg, Day 35", "value": 336, "unit": "mg/dL"},
      {"measurement": "blood glucose level", "setting": "STZ + compound 5 µg/kg, Day 39", "value": 376, "unit": "mg/dL"},
      {"measurement": "blood glucose level", "setting": "STZ + compound 5 µg/kg, Day 42", "value": 390, "unit": "mg/dL"},
      {"measurement": "blood glucose level", "setting": "STZ + compound 5 µg/kg, Day 46", "value": 317, "unit": "mg/dL"},
      {"measurement": "blood glucose level", "setting": "STZ + compound 5 µg/kg, Day 54", "value": 260, "unit": "mg/dL"},
      {"measurement": "blood glucose level", "setting": "STZ + compound 5 µg/kg, Day 61", "value": 324, "unit": "mg/dL"},
      {"measurement": "blood glucose level", "setting": "STZ + compound 10 µg/kg, Day 1", "value": 103, "unit": "mg/dL"},
      {"measurement": "blood glucose level", "setting": "STZ + compound 10 µg/kg, Day 4", "value": 99, "unit": "mg/dL"},
      {"measurement": "blood glucose level", "setting": "STZ + compound 10 µg/kg, Day 7", "value": 415, "unit": "mg/dL"},
      {"measurement": "blood glucose level", "setting": "STZ + compound 10 µg/kg, Day 11", "value": 477, "unit": "mg/dL"},
      {"measurement": "blood glucose level", "setting": "STZ + compound 10 µg/kg, Day 15", "value": 117, "unit": "mg/dL"},
      {"measurement": "blood glucose level", "setting": "STZ + compound 10 µg/kg, Day 18", "value": 125, "unit": "mg/dL"},
      {"measurement": "blood glucose level", "setting": "STZ + compound 10 µg/kg, Day 21", "value": 103, "unit": "mg/dL"},
      {"measurement": "blood glucose level", "setting": "STZ + compound 10 µg/kg, Day 25", "value": 102, "unit": "mg/dL"},
      {"measurement": "blood glucose level", "setting": "STZ + compound 10 µg/kg, Day 28", "value": 429, "unit": "mg/dL"},
      {"measurement": "blood glucose level", "setting": "STZ + compound 10 µg/kg, Day 32", "value": 111, "unit": "mg/dL"},
      {"measurement": "blood glucose level", "setting": "STZ + compound 10 µg/kg, Day 35", "value": 128, "unit": "mg/dL"},
      {"measurement": "blood glucose level", "setting": "STZ + compound 10 µg/kg, Day 39", "value": 252, "unit": "mg/dL"},
      {"measurement": "blood glucose level", "setting": "STZ + compound 10 µg/kg, Day 42", "value": 224, "unit": "mg/dL"},
      {"measurement": "blood glucose level", "setting": "STZ + compound 10 µg/kg, Day 46", "value": 289, "unit": "mg/dL"},
      {"measurement": "blood glucose level", "setting": "STZ + compound 10 µg/kg, Day 54", "value": 255, "unit": "mg/dL"},
      {"measurement": "blood glucose level", "setting": "STZ + compound 10 µg/kg, Day 61", "value": 218, "unit": "mg/dL"},
      {"measurement": "blood glucose level", "setting": "STZ + compound 20 µg/kg, Day 1", "value": 103, "unit": "mg/dL"},
      {"measurement": "blood glucose level", "setting": "STZ + compound 20 µg/kg, Day 4", "value": 98, "unit": "mg/dL"},
      {"measurement": "blood glucose level", "setting": "STZ + compound 20 µg/kg, Day 7", "value": 461, "unit": "mg/dL"},
      {"measurement": "blood glucose level", "setting": "STZ + compound 20 µg/kg, Day 11", "value": 502, "unit": "mg/dL"},
      {"measurement": "blood glucose level", "setting": "STZ + compound 20 µg/kg, Day 15", "value": 266, "unit": "mg/dL"},
      {"measurement": "blood glucose level", "setting": "STZ + compound 20 µg/kg, Day 18", "value": 263, "unit": "mg/dL"},
      {"measurement": "blood glucose level", "setting": "STZ + compound 20 µg/kg, Day 21", "value": 382, "unit": "mg/dL"},
      {"measurement": "blood glucose level", "setting": "STZ + compound 20 µg/kg, Day 25", "value": 345, "unit": "mg/dL"},
      {"measurement": "blood glucose level", "setting": "STZ + compound 20 µg/kg, Day 28", "value": 496, "unit": "mg/dL"},
      {"measurement": "blood glucose level", "setting": "STZ + compound 20 µg/kg, Day 32", "value": 468, "unit": "mg/dL"},
      {"measurement": "blood glucose level", "setting": "STZ + compound 20 µg/kg, Day 35", "value": 485, "unit": "mg/dL"},
      {"measurement": "blood glucose level", "setting": "STZ + compound 20 µg/kg, Day 39", "value": 477, "unit": "mg/dL"},
      {"measurement": "blood glucose level", "setting": "STZ + compound 20 µg/kg, Day 42", "value": 457, "unit": "mg/dL"},
      {"measurement": "blood glucose level", "setting": "STZ + compound 20 µg/kg, Day 46", "value": 487, "unit": "mg/dL"},
      {"measurement": "blood glucose level", "setting": "STZ + compound 20 µg/kg, Day 54", "value": 389, "unit": "mg/dL"},
      {"measurement": "blood glucose level", "setting": "STZ + compound 20 µg/kg, Day 61", "value": 452, "unit": "mg/dL"},
      {"measurement": "blood glucose level", "setting": "STZ + compound 40 µg/kg, Day 1", "value": 105, "unit": "mg/dL"},
      {"measurement": "blood glucose level", "setting": "STZ + compound 40 µg/kg, Day 4", "value": 99, "unit": "mg/dL"},
      {"measurement": "blood glucose level", "setting": "STZ + compound 40 µg/kg, Day 7", "value": 548, "unit": "mg/dL"},
      {"measurement": "blood glucose level", "setting": "STZ + compound 40 µg/kg, Day 11", "value": 568, "unit": "mg/dL"},
      {"measurement": "blood glucose level", "setting": "STZ + compound 40 µg/kg, Day 15", "value": 327, "unit": "mg/dL"},
      {"measurement": "blood glucose level", "setting": "STZ + compound 40 µg/kg, Day 18", "value": 405, "unit": "mg/dL"},
      {"measurement": "blood glucose level", "setting": "STZ + compound 40 µg/kg, Day 21", "value": 472, "unit": "mg/dL"},
      {"measurement": "blood glucose level", "setting": "STZ + compound 40 µg/kg, Day 25", "value": 455, "unit": "mg/dL"},
      {"measurement": "blood glucose level", "setting": "STZ + compound 40 µg/kg, Day 28", "value": 514, "unit": "mg/dL"},
      {"measurement": "blood glucose level", "setting": "STZ + compound 40 µg/kg, Day 32", "value": 543, "unit": "mg/dL"},
      {"measurement": "blood glucose level", "setting": "STZ + compound 40 µg/kg, Day 35", "value": 507, "unit": "mg/dL"},
      {"measurement": "blood glucose level", "setting": "STZ + compound 40 µg/kg, Day 39", "value": 589, "unit": "mg/dL"},
      {"measurement": "blood glucose level", "setting": "STZ + compound 40 µg/kg, Day 42", "value": 592, "unit": "mg/dL"},
      {"measurement": "blood glucose level", "setting": "STZ + compound 40 µg/kg, Day 46", "value": 609, "unit": "mg/dL"},
      {"measurement": "blood glucose level", "setting": "STZ + compound 40 µg/kg, Day 54", "value": 531, "unit": "mg/dL"},
      {"measurement": "blood glucose level", "setting": "STZ + compound 40 µg/kg, Day 61", "value": 413, "unit": "mg/dL"}
    ]}
  ]
}
